Assay results as given in PubChem BioAssay AID2060902 (Molecular Pharmacology Branch, DTP, NCI, 2025).

System: 485368-065-R3-J5-PDC spheroids with HUVEC/MSC, viability
Assay: Anticancer human tumor 485368-065-R3-J5-PDC patient-derived pancreatic carcinoma cell line growth inhibition [RAS]
Conditions: for IC50: curve of first compound; for viability, T/C: stronger effect = lower value
How it was run: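 Multi-cell-type spheroids: tumor cells plus HUVEC endothelial cells and mesenchymal stem cells. RAS-pathway inhibitors were combined with targeted agents, each dosed in half-log steps down from clinical Cmax, or from 10 microM when Cmax was unknown.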

[1] = second compound 0.000949 µM, first compound 0.0316 µM
[2] = second compound 0.000949 µM, first compound 0.1 µM
[3] = second compound 0.000949 µM, first compound 0.316 µM
[4] = second compound 0.000949 µM, first compound 1 µM
[5] = second compound 0.003 µM, first compound 0.0316 µM
[6] = second compound 0.003 µM, first compound 0.1 µM
[7] = second compound 0.003 µM, first compound 0.316 µM
[8] = second compound 0.003 µM, first compound 1 µM
[9] = second compound 0.00949 µM, first compound 0.0316 µM
[10] = second compound 0.00949 µM, first compound 0.1 µM
[11] = second compound 0.00949 µM, first compound 0.316 µM
[12] = second compound 0.00949 µM, first compound 1 µM
[13] = second compound 0.03 µM, first compound 0.0316 µM
[14] = second compound 0.03 µM, first compound 0.1 µM
[15] = second compound 0.03 µM, first compound 0.316 µM
[16] = second compound 0.03 µM, first compound 1 µM
[17] = second compound 0.0949 µM, first compound 0.0316 µM
[18] = second compound 0.0949 µM, first compound 0.1 µM
[19] = second compound 0.0949 µM, first compound 0.316 µM
[20] = second compound 0.0949 µM, first compound 1 µM
[21] = second compound 0.3 µM, first compound 0.0316 µM
[22] = second compound 0.3 µM, first compound 0.1 µM
[23] = second compound 0.3 µM, first compound 0.316 µM
[24] = second compound 0.3 µM, first compound 1 µM
[25] = second compound 0.000949 µM, first compound 3.16 µM
[26] = second compound 0.000949 µM, first compound 10 µM
[27] = second compound 0.003 µM, first compound 3.16 µM
[28] = second compound 0.003 µM, first compound 10 µM
[29] = second compound 0.00949 µM, first compound 3.16 µM
[30] = second compound 0.00949 µM, first compound 10 µM
[31] = second compound 0.03 µM, first compound 3.16 µM
[32] = second compound 0.03 µM, first compound 10 µM
[33] = second compound 0.0949 µM, first compound 3.16 µM
[34] = second compound 0.0949 µM, first compound 10 µM
[35] = second compound 0.3 µM, first compound 3.16 µM
[36] = second compound 0.3 µM, first compound 10 µM
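Note: spheroids exposed to agents for seven days before readout.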

## CCN1CCN(Cc2ccc(Nc3ncc(F)c(-c4cc(F)c5nc(C)n(C(C)C)c5c4)n3)nc2)CC1 + CCn1c(-c2cccnc2C(C)OC)c2c3cc(ccc31)N1CCOC(CC(NC(=O)C(C(C)C)N(C)C(=O)C3(F)CCN(C(=O)C#CC(C)(C)N(C)C)CC3)C(=O)N3CCCC(N3)C(=O)OCC(C)(C)C2)C1
Second compound 0.000949 µM
  IC50: > 1 µM
Second compound 0.003 µM
  IC50: 0.639 µM
Second compound 0.00949 µM
  IC50: 0.941 µM
Second compound 0.03 µM
  IC50: 0.693 µM
Second compound 0.0949 µM
  IC50: 0.888 µM
Second compound 0.3 µM
  IC50: > 1 µM
Second compound 0.000949 µM, first compound 0.00316 µM
  viability, T/C: 103%
Second compound 0.000949 µM, first compound 0.01 µM
  viability, T/C: 88.8%
[1]
  viability, T/C: 103%
[2]
  viability, T/C: 77.9%
[3]
  viability, T/C: 63.5%
[4]
  viability, T/C: 51.5%
Second compound 0.003 µM, first compound 0.00316 µM
  viability, T/C: 98.4%
Second compound 0.003 µM, first compound 0.01 µM
  viability, T/C: 91.5%
[5]
  viability, T/C: 96.4%
[6]
  viability, T/C: 77.3%
[7]
  viability, T/C: 58.2%
[8]
  viability, T/C: 45%
Second compound 0.00949 µM, first compound 0.00316 µM
  viability, T/C: 96.8%
Second compound 0.00949 µM, first compound 0.01 µM
  viability, T/C: 100%
[9]
  viability, T/C: 91.3%
[10]
  viability, T/C: 84.7%
[11]
  viability, T/C: 60.9%
[12]
  viability, T/C: 49.6%
Second compound 0.03 µM, first compound 0.00316 µM
  viability, T/C: 96.8%
Second compound 0.03 µM, first compound 0.01 µM
  viability, T/C: 100%
[13]
  viability, T/C: 95.4%
[14]
  viability, T/C: 82.6%
[15]
  viability, T/C: 70.5%
[16]
  viability, T/C: 40.7%
Second compound 0.0949 µM, first compound 0.00316 µM
  viability, T/C: 96.8%
Second compound 0.0949 µM, first compound 0.01 µM
  viability, T/C: 95.1%
[17]
  viability, T/C: 96.1%
[18]
  viability, T/C: 83.4%
[19]
  viability, T/C: 66.3%
[20]
  viability, T/C: 48%
Second compound 0.3 µM, first compound 0.00316 µM
  viability, T/C: 96.8%
Second compound 0.3 µM, first compound 0.01 µM
  viability, T/C: 104%
[21]
  viability, T/C: 89.3%
[22]
  viability, T/C: 88.8%
[23]
  viability, T/C: 63.7%
[24]
  viability, T/C: 55.8%

## Cc1nc(N2CCC3(CC2)COC(C)C3N)c(CO)nc1Sc1ccnc(N)c1Cl (stereo unspecified) + CCn1c(-c2cccnc2C(C)OC)c2c3cc(ccc31)N1CCOC(CC(NC(=O)C(C(C)C)N(C)C(=O)C3(F)CCN(C(=O)C#CC(C)(C)N(C)C)CC3)C(=O)N3CCCC(N3)C(=O)OCC(C)(C)C2)C1
Second compound 0.000949 µM
  IC50: > 10 µM
Second compound 0.003 µM
  IC50: > 10 µM
Second compound 0.00949 µM
  IC50: > 10 µM
Second compound 0.03 µM
  IC50: > 10 µM
Second compound 0.0949 µM
  IC50: > 10 µM
Second compound 0.3 µM
  IC50: > 10 µM
[1]
  viability, T/C: 94.1%
[2]
  viability, T/C: 108%
[3]
  viability, T/C: 86.1%
[4]
  viability, T/C: 79.1%
[25]
  viability, T/C: 78.1%
[26]
  viability, T/C: 70.2%
[5]
  viability, T/C: 95.8%
[6]
  viability, T/C: 98%
[7]
  viability, T/C: 95.4%
[8]
  viability, T/C: 84.8%
[27]
  viability, T/C: 80.3%
[28]
  viability, T/C: 79.5%
[9]
  viability, T/C: 90%
[10]
  viability, T/C: 99.6%
[11]
  viability, T/C: 97.9%
[12]
  viability, T/C: 96.2%
[29]
  viability, T/C: 80.4%
[30]
  viability, T/C: 72.7%
[13]
  viability, T/C: 104%
[14]
  viability, T/C: 96.9%
[15]
  viability, T/C: 85.3%
[16]
  viability, T/C: 103%
[31]
  viability, T/C: 83.9%
[32]
  viability, T/C: 61.7%
[17]
  viability, T/C: 90.5%
[18]
  viability, T/C: 92.8%
[19]
  viability, T/C: 84.2%
[20]
  viability, T/C: 95.1%
[33]
  viability, T/C: 83.9%
[34]
  viability, T/C: 74.2%
[21]
  viability, T/C: 110%
[22]
  viability, T/C: 94.6%
[23]
  viability, T/C: 83.2%
[24]
  viability, T/C: 87.2%
[35]
  viability, T/C: 85.5%
[36]
  viability, T/C: 63.3%

## NC1c2ccccc2OC12CCN(c1cnc3c(N4CCCc5ncccc54)n[nH]c3n1)CC2 (stereo unspecified) + CCn1c(-c2cccnc2C(C)OC)c2c3cc(ccc31)N1CCOC(CC(NC(=O)C(C(C)C)N(C)C(=O)C3(F)CCN(C(=O)C#CC(C)(C)N(C)C)CC3)C(=O)N3CCCC(N3)C(=O)OCC(C)(C)C2)C1
Second compound 0.000949 µM
  IC50: > 10 µM
Second compound 0.003 µM
  IC50: > 10 µM
Second compound 0.00949 µM
  IC50: > 10 µM
Second compound 0.03 µM
  IC50: > 10 µM
Second compound 0.0949 µM
  IC50: > 10 µM
Second compound 0.3 µM
  IC50: > 10 µM
[1]
  viability, T/C: 84.7%
[2]
  viability, T/C: 84.3%
[3]
  viability, T/C: 81.9%
[4]
  viability, T/C: 91.1%
[25]
  viability, T/C: 86.6%
[26]
  viability, T/C: 81.9%
[5]
  viability, T/C: 85.7%
[6]
  viability, T/C: 90.1%
[7]
  viability, T/C: 82.8%
[8]
  viability, T/C: 80.5%
[27]
  viability, T/C: 92.8%
[28]
  viability, T/C: 87.9%
[9]
  viability, T/C: 89.7%
[10]
  viability, T/C: 90.3%
[11]
  viability, T/C: 82.6%
[12]
  viability, T/C: 78.6%
[29]
  viability, T/C: 88.9%
[30]
  viability, T/C: 84.9%
[13]
  viability, T/C: 98.7%
[14]
  viability, T/C: 93%
[15]
  viability, T/C: 82.7%
[16]
  viability, T/C: 79.2%
[31]
  viability, T/C: 83.6%
[32]
  viability, T/C: 81.4%
[17]
  viability, T/C: 82.3%
[18]
  viability, T/C: 86.8%
[19]
  viability, T/C: 81.1%
[20]
  viability, T/C: 77%
[33]
  viability, T/C: 87.7%
[34]
  viability, T/C: 76.5%
[21]
  viability, T/C: 78.3%
[22]
  viability, T/C: 86.1%
[23]
  viability, T/C: 75.3%
[24]
  viability, T/C: 81.1%
[35]
  viability, T/C: 98.2%
[36]
  viability, T/C: 69.7%
